Consider eleven compounds from patent EP0831811B1, “CARBAZOLES FOR TREATING MICROBIAL INFECTIONS” (priority 1995, dated 1996).

Structures can show the parent of a compound that is named as a salt.

In one data set the test system is Pneumocystis carinii. Briefly: Rat model of P. carinii pneumonia (PCP): cysts per gram of lung. Format: in vivo. Conditions: for response vs control in vivo at 5 mg/kg: immunosuppressed rats, dose 5.0 mg/kg iv once daily for 14 days, means ± SEM, percent of saline-treated controls; for anti-P. carinii activity (in words): rat model, carbazoles tested at one half the dose of pentamidine. How it is done:
(§1) The activity of the compounds against P. carinii was carried out according to an established method. See Tidwell, R. R., et al., J. Med. Chem. 33, 1252-1257 (1990); Jones, S. K., et al., Antimicrob. Agents Chemother. 34, 1026-1030 (1990); Tidwell, R.R., et al., Antimicrob. Agents Chemother. 37, 1713-1716 (1993). The induction and treatment of P. carinii pneumonia (PCP) was carried out with only minor alterations to published methods. See Frenkel, J.K. et al., Lab. Invest. 15, 1559 (1966); Hughes, W.T. et al., Antimicrob. Agents Chemother. 5, 289 (1974). Briefly, male Sprague-Dawley rats (barrier raised, not certified virus-free) weighing 150-200g each, were obtained (Hilltop Laboratories, Scottsdale, PA). Immediately upon arrival, the animals were caged individually and begun on a low protein (8%) diet and on drinking water containing tetracycline (0.5 mg/mL) and dexamethasone ([…]). This regimen was continued for eight weeks. At the beginning of the seventh week, animals were divided into groups of 8 or more, and the test compounds were administered for 14 days by single daily IV injection. Generally, the daily dose was 5 mg/kg of body weight and was dissolved in 0.4 mL of saline. Saline- and pentamidine-treated groups were included as controls.
Animals were sacrificed at the end of the eighth week by chloroform inhalation. The right lung was inflated in situ with 10% formalin and fixed for histological examination. The lung tissue was sectioned in the long axis and exposed to the GMS stain, which selectively identified the walls of the P. carinii cysts.
The left lung was weighed, ground through a No. 60 wire mesh screen, and suspended 1:10 (wt/vol) in 10 mM β-mercaptoethanol-Hanks' balanced salts solution (HBSS) without cations. Slides were prepared by spotting 5 µL of lung homogenate diluted 1:10 in HBSS with β-mercaptoethanol and allowed to air dry. The slides were stained with cresyl violet, and the cysts were counted by a blinded protocol. The number of cysts per gram of original lung tissue was calculated, and the groups were reported as the percentages of saline-treated controls.
Anti-P. carinii activity is measured by the reduction in the number of cysts per gram of lung tissue for treated animals as compared to untreated controls. The anti-P. carinii value for each compound is expressed as the percent of cysts in the treatment group as compared to the control group. […] It should be noted that compound 3 was tested at one half the dose of pentamidine as were all of the carbazoles.

A short description of data set [1]: Toxicity seen in the rat PCP treatment study. On the set-up: species or system Sprague-Dawley rats. The note with it: in vivo, iv, 5 mg/kg. How it is done:
as §1

A further data set concerns Calf thymus DNA. Briefly: DNA binding by thermal melting (ΔTm). The note with it: for DNA binding calf thymus ΔTm(°C): absorbance at 259 nm, heated at 18°C/h, average of at least two determinations. How it is done: DNA binding potency was determined for each of the compounds because previous work had determined that the binding of dicationic molecules to DNA is a prerequisite for their antimicrobial activity. See e.g., Tidwell, R.R., et al., Antimicrob. Agents Chemother. 37, 1713-1716 (1993); Bell, C. A., et al., Antimicrob. Agents Chemother. 35, 1099-1107 (1991). The DNA binding of the compounds was determined by the change in melting of the DNA bound to the experimental compounds. The method is well documented and is a considered a standard method for determining DNA binding strength. See Cory, M.. et al., J. Med. Chem. 25, 431-438 (1992). In brief, a UV-visible light spectrophotometer with a cuvette changer was interfaced to a microcomputer that recorded the cuvette temperature and DNA-absorbance data at 259 nm as the sample was heated at a rate of 18°C/h. Calf thymus DNA was used at an initial absorbance of 0.3A259. The midpoint of each denaturation curve was determined after graphic selection on the computer of the starting and ending absorbance temperature for each curve of each experiment. DNA or DNA bound to experimental compound was run in each experiment and the ΔTms were determined from the polynucleotide Tm for that experiment. […] The data reported in Table 1 represent the average of at least two determinations of ΔTm.

Another data set concerns Cryptosporidium parvum. The data set can be described thus: Neonatal mouse model of Cryptosporidium parvum infection: oocysts in the bowel. Type of data set: in vivo. The note with it: for Efficacy: C. parvum. How it is done: Besides the potency shown by this compound against P. carinii infection in the rat model, the compound was also effective in a neonatal mouse model of Cryptosporidium parvum infection. This model has been described in detail in previous reports. See Blagburn, B. L.; et al., Antimicrob. Agents Chemother. 35, 1520-1523 (1991). The compound's activity against C. parvum is measured by a reduction in the number of oocysts detected in the bowel of treated mice compared to untreated controls.

The subject of a further data set is C. albicans. The data set can be described thus: Broth dilution antifungal susceptibility test (NCCLS M27-P), MIC and MFC. Format: cell-based. How it is done:
(§2) Activity of the compound was assessed using a standard in vitro fungal cell growth inhibition assay (the broth dilution antifungal susceptibility testing of yeast, proposed standard document M27-P, validated by the National Committee for Clinical Laboratory Standards, 1992). Briefly, this broth dilution procedure uses PMI media, and an inoculum of […] with media alone. After the minimal inhibitor concentration was determined by the above procedure, tubes with no visible growth were subcultured to determine the minimum fungicidal concentration by using criteria of less than 0.01% survival of original inoculum. Two organisms were tested: (1) H99, a clinical isolate of C. neoformans which is fully susceptible to azoles and polyenes in vitro and in vivo; and (2) A39, a clinical isolate of C. albicans which is fully susceptible to azoles and polyenes.
(§3) The MFC's (minimum fungicidal concentration) for compound 9 against these two important AIDS-associated fungal infections are shown in Table 2.
Background: Dilution methods test growth across graded concentrations, often in twofold steps.

The next data set has as its system Cryptococcus neoformans. Described as above. Type of data set: cell-based. How it is done: as §2, §3
The mark [2] stands for this setting: Pneumocystis carinii, 336 h, read-out: in vivo activity against PCP cysts/g lung % control.
The mark [3] stands for this setting: in vitro fungal cell growth inhibition.

For the compound `Cl.Cl.N=C(N)c1ccc2[nH]c3ccc(C(=N)N)cc3c2c1` [Compound 1, 3,6-diamidinocarbazole dihydrochloride], in the data set on Pneumocystis carinii (setting [2]), the response vs control in vivo at 5 mg/kg was found to be 0.8 ± 0.36%. The same compound showed a toxicity in data set [1] of 0. In addition, in the data set on Calf thymus DNA, the “DNA binding calf thymus ΔTm(°C)” value came to 17.2 °C.

On to `CC(C)N=C(N)c1ccc2[nH]c3ccc(C(N)=NC(C)C)cc3c2c1` [Compound 2, 3,6-diisopropylamidinocarbazole dihydrochloride], for which the response vs control in vivo at 5 mg/kg in the data set with Pneumocystis carinii (setting [2]) stood at 0.11 ± 0.08%. In data set [1], this compound had a toxicity of 0.

Regarding `c1cc2[nH]c3ccc(C4=NCCN4)cc3c2cc1C1=NCCN1` [Compound 3, 3,6-bis(2-imidazolinyl)carbazole dihydrochloride], the response vs control in vivo at 5 mg/kg with Pneumocystis carinii (setting [2]) came to 0.06 ± 0.02%. Moreover, the toxicity in data set [1] is reported as 0.

As to `Cn1c2ccc(C3=NCCN3)cc2c2cc(C3=NCCN3)ccc21` [Compound 4, 3,6-bis(2-imidazolinyl)-9-methylcarbazole dihydrochloride], in the data set with Pneumocystis carinii (setting [2]), the response vs control in vivo at 5 mg/kg stood at 0.17 ± 0.11%.

With `c1cc2c(cc1C1=NCCN1)c1cc(C3=NCCN3)ccc1n2CC1CCCCC1` [Compound 5, 9-cyclohexylmethyl-3,6-bis(2-imidazolinyl)carbazole dihydrochloride], the response vs control in vivo at 5 mg/kg in the data set on Pneumocystis carinii (setting [2]) amounted to 35.8 ± 4.87%. Besides, the toxicity in data set [1] is 0.

Regarding `Cn1c2ccc(C3=NCCCN3)cc2c2cc(C3=NCCCN3)ccc21` [Compound 6, 3,6-bis[2-(1,4,5,6-tetrahydropyrimidinyl)]-9-methylcarbazole dihydrochloride], the response vs control in vivo at 5 mg/kg in the data set on Pneumocystis carinii (setting [2]) came out at 0.14 ± 0.05%. Also, the “DNA binding calf thymus ΔTm(°C)” value with Calf thymus DNA is 13.6 °C.

For the compound `c1cc2c(cc1C1=NCCCN1)c1cc(C3=NCCCN3)ccc1n2CC1CCCCC1` [Compound 7, 3,6-bis[2-(1,4,5,6-tetrahydropyrimidinyl)]-9-cyclohexylmethylcarbazole dihydrochloride], the response vs control in vivo at 5 mg/kg in the data set with Pneumocystis carinii (setting [2]) was 4.1 ± 1.59%. Moreover, the “anti-P. carinii activity (in words)” value in the data set on Pneumocystis carinii was “failed to exhibit anti-P. carinii significantly more potent than the control drug, pentamidine”. Further, the “DNA binding calf thymus ΔTm(°C)” value with Calf thymus DNA was determined as 7.3 °C.

`c1cc2[nH]c(-c3ccc4[nH]c5ccc(-c6nc7cc(C8=NCCN8)ccc7[nH]6)cc5c4c3)nc2cc1C1=NCCN1` [Compound 8, 3,6-bis[2-imidazolinyl)-2-benzimidazoyl]carbazole tetrahydrochloride]: in the data set with Pneumocystis carinii (setting [2]), the response vs control in vivo at 5 mg/kg was 61.9 ± 14.5%. Further, the “anti-P. carinii activity (in words)” value is “failed to exhibit anti-P. carinii significantly more potent than the control drug, pentamidine” with Pneumocystis carinii and “only moderate activity” in the data set with Pneumocystis carinii (listed as compound 8). In data set [1], this compound gave a toxicity of 0. Also, in the data set on Calf thymus DNA, the “DNA binding (in words)” value is listed as “highly potent as a DNA binding agent”. Moreover, the “DNA binding calf thymus ΔTm(°C)” value in the data set on Calf thymus DNA turned out to be 22.2 °C.

As for `Cl.Cl.N=C(N)c1ccc2c(c1)[nH]c1cc(C(=N)N)ccc12` [Compound 9, 2,7-diamidinocarbazole dihydrochloride], in the data set with Pneumocystis carinii (setting [2]), the response vs control in vivo at 5 mg/kg was found to be 0.17 ± 0.06%. This compound also registered a toxicity in data set [1] of 0. In the data set on Calf thymus DNA, the “DNA binding calf thymus ΔTm(°C)” value was 19.0 °C. For the same compound, the “activity against C. parvum (in words)” value in the data set with Cryptosporidium parvum is reported as “effective”. In addition, the figures for the Efficacy in the data set on Cryptosporidium parvum (14.6 µmol/kg oral), in the data set with Cryptosporidium parvum (29.3 µmol/kg oral) and with Cryptosporidium parvum (58.6 µmol/kg oral) were 6.1 % control, 0.30% control and 0.89 % control, respectively. Besides, the minimum inhibitory concentration (MIC) (as a rule, the least concentration at which growth counts as inhibited) with C. albicans (Candida albicans, in vitro, A39 clinical isolate of C. albicans) was 0.78 µg/mL; in the data set on Cryptococcus neoformans (Cryptococcus neoformans, in vitro, H99 clinical isolate of C. neoformans), 6.25 µg/mL. The minimal fungicidal concentration (MFC) (usually the smallest concentration meeting the test's criterion for killing the fungus) with C. albicans (Candida albicans, in vitro, A39 clinical isolate of C. albicans, less than 0.01% survival of original inoculum) came out at 1.56 µg/mL; with Cryptococcus neoformans (Cryptococcus neoformans, in vitro, H99 clinical isolate of C. neoformans, less than 0.01% survival of original inoculum) it was 50 µg/mL. Also, the “activity in vitro (in words)” value in the data set with C. albicans (setting [3]) and in the data set on Cryptococcus neoformans (setting [3]) was “highly active” each time.

Consider `c1cc2c(cc1C1=NCCN1)[nH]c1cc(C3=NCCN3)ccc12` [Compound 10, 2,7-bis(2-imidazolinyl)carbazole dihydrochloride], for which, in the data set on Pneumocystis carinii (setting [2]), the response vs control in vivo at 5 mg/kg was found to be 0.5 ± 0.33%. The compound further showed a toxicity in data set [1] of 0.

In the case of `N=C(N)c1ccc(OCCCCCOc2ccc(C(=N)N)cc2)cc1` [pentamidine, reference compound], in the data set on Pneumocystis carinii (Pneumocystis carinii, iv, 336 h, read-out: in vivo activity against PCP cysts/g lung % control), the response vs control in vivo at 10 mg/kg turned out to be 1.84 ± 0.82%. Besides, the “DNA binding calf thymus ΔTm(°C)” value in the data set on Calf thymus DNA was 10.7 °C.
